Test results: ChEMBL document CHEMBL5120749, “Human estrogen receptor α antagonists, part 2: Synthesis driven by rational design, in vitro antiproliferative, and in vivo anticancer evaluation of innovative coumarin-related antiestrogens as breast cancer suppressants” (Eur J Med Chem, 2022)

Columns and labels:
Estrogen receptor [1] = target: T1, Estrogen receptor (Homo sapiens, UniProt P03372)
T1 sequence (P03372 whole entry): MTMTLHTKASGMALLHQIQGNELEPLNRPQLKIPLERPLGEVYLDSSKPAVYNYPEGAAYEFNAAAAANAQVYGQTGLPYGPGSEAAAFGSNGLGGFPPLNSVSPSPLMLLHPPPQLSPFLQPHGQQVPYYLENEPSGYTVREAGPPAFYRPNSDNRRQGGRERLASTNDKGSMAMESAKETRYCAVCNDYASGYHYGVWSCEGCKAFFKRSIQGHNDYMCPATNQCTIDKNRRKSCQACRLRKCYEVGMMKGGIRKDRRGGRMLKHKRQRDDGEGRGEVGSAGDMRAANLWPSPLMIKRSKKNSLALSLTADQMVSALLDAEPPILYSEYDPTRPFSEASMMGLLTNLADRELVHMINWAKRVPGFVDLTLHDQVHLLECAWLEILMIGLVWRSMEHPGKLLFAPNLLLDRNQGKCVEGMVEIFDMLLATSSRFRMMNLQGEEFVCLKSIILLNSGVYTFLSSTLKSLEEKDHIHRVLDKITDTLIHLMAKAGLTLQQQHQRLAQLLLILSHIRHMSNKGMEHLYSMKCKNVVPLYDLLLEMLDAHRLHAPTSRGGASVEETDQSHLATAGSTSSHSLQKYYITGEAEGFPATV
Description: (§1) Antagonist activity at ERalpha (unknown origin)

Estrogen receptor [2] = target: T1, Estrogen receptor; remark: listed apart in the source
Description: Antagonist activity at ERalpha in human MCF7 cells assessed as downregulation of ERalpha

Progesterone receptor = target: T2, Progesterone receptor (Homo sapiens, UniProt P06401)
T2 sequence (P06401 whole entry): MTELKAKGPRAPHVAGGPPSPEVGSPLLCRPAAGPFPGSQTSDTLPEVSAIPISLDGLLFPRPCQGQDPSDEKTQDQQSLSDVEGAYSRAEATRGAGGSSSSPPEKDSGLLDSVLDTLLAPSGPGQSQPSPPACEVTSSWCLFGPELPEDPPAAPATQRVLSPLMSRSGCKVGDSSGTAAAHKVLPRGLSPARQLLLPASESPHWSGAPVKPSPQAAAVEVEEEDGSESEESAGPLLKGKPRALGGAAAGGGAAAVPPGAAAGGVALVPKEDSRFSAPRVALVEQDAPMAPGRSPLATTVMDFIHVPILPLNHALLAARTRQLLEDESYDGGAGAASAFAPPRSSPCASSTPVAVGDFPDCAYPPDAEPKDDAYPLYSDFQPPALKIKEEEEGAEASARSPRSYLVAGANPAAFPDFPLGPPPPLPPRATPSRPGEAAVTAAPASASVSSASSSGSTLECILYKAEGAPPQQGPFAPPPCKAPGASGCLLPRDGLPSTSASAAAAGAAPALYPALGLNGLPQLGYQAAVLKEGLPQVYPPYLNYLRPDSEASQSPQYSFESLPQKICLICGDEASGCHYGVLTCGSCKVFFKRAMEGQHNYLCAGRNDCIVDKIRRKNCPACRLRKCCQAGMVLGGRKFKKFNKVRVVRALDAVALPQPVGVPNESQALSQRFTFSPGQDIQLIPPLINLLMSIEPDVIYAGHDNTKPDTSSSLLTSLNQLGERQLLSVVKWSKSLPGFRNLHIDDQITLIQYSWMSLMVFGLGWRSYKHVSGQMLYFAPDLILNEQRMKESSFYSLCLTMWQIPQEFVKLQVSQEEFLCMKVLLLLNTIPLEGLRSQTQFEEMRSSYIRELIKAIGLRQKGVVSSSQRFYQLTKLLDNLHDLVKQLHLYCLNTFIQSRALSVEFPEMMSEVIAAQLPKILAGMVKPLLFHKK
Description: Antagonist activity at progesterone receptor in human MCF7 cells

Estrogen receptor beta [3] = target: T3, Estrogen receptor beta (Homo sapiens, UniProt Q92731)
Description: (§2) Antagonist activity at ERbeta (unknown origin)

[4] = target: T4, Estrogen receptor (Homo sapiens) (UniProt P03372); details: filed as antagonist
T4 sequence (whole entry): T1 sequence (P03372 whole entry)
Description: as §1

Estrogen receptor beta [5] = target: T3, Estrogen receptor beta; details: filed as antagonist
Description: as §2

[6] = target: T4, Estrogen receptor (Homo sapiens); details: filed as antagonist; remark: listed apart in the source
Description: Relative binding affinity to ERalpha (unknown origin)

Estrogen receptor beta [7] = target: T3, Estrogen receptor beta; details: filed as antagonist; remark: listed apart in the source
Description: Relative binding affinity to ERbeta (unknown origin)

MCF7 = experiment: cells; details: Homo sapiens
Description: Antiproliferative activity against human MCF7 cells

MDA-MB-231 = experiment: cells; details: Homo sapiens
Description: Antiproliferative activity against human MDA-MB-231 cells

MRC5 = experiment: cells; details: Homo sapiens
Description: Antiproliferative activity against human MRC5 cells

Ishikawa = experiment: cells; details: Homo sapiens
Description: Antiproliferative activity against human Ishikawa cells

in vivo [8] = details: rat, po, 5 mg/kg
in vivo [9] = details: rat, po, 50 mg/kg
physchem = details: octanol/water
Description: (§3) Lipophilicity, logD of the compound by shake-flask method

[10] = octanol/water
Description: as §3

T3 sequence (Q92731 whole entry): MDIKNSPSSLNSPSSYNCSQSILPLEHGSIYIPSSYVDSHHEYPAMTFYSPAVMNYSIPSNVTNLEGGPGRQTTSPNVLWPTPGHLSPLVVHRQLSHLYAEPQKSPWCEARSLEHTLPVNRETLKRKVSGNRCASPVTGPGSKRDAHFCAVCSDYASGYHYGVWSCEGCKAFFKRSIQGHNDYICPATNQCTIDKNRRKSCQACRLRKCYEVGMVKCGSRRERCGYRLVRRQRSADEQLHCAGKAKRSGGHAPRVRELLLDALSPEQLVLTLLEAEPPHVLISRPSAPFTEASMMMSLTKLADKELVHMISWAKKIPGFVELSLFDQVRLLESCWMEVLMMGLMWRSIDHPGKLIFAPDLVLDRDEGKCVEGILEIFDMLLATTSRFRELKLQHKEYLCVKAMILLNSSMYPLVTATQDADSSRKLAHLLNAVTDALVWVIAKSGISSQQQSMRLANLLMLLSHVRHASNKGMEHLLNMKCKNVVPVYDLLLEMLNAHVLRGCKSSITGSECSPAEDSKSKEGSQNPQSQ

SMILES | IC50 (Estrogen receptor [1]) [nM] | IC50 (Estrogen receptor [2]) [nM] | IC50 (Progesterone receptor) [nM] | IC50 (Estrogen receptor beta [3]) [nM] | Ka [4] [nM] | Ka (Estrogen receptor beta [5]) [nM] | log(RBA) [6] | log(RBA) (Estrogen receptor beta [7]) | IC50 (MCF7) [nM] | IC50 (MDA-MB-231) [nM] | IC50 (MRC5) [nM] | IC50 (Ishikawa) [nM] | bioavailability (in vivo [8]) [%] | bioavailability (in vivo [9]) [%] | logD (physchem) | logD [10]
Nc1ccc(-c2c(C(=O)c3ccc(OCCN4CC(C(=O)O)=CCC4=O)cc3)c3ccc(O)cc3oc2=O)cc1 | 39 | > 100 | > 100 | – | – | – | – | – | – | – | – | – | – | – | – | –
O=C(COCN1CCCCC1)CN1Nc2cc(O)ccc2-c2c1c1ccc(O)cc1oc2=O | 0.76 | > 100 | > 100 | 86.4 | 0.17 | 48.5 | 2.07 | 0.01 | 1.03 | 41.8 | > 100 | 0.96 | – | – | – | –
O=C(COCN1CCCCC1)CN1Nc2c(c(=O)oc3cc(O)ccc23)-c2ccc(O)cc21 | 375 | – | – | 36.8 | 84.3 | 20.7 | -0.63 | 0.38 | – | – | – | – | – | – | – | –
CC/C(=C(\c1ccc(O)cc1)c1ccc(OCCN(C)C)cc1)c1ccccc1 [AFIMOXIFENE] | – | – | > 100 | – | – | – | – | – | 1.2 | 36.8 | > 100 | 1.27 | 87 | 94 | 3.62 | –
CNCCOc1ccc(N2Nc3c(c(=O)oc4cc(O)ccc34)-c3ccc(O)cc32)cc1 | 161 | – | – | 28.8 | 36.1 | 16.2 | -0.26 | 0.49 | – | – | – | – | – | – | – | –
CC(CN1CCCC2CCCNC21)OCC(=O)N1Nc2cc(O)ccc2C2COc3cc(O)ccc3C21 (configuration not stated) | 0.67 | > 100 | > 100 | 67.1 | 0.15 | 37.7 | 2.12 | 0.12 | 0.73 | 51.5 | > 100 | 0.77 | – | – | – | –
CC(CN1CCCC2CCCNC21)OCC(=O)N1NC2c3ccc(O)cc3OCC2c2ccc(O)cc21 (configuration not stated) | 168 | – | – | – | – | – | – | – | – | – | – | – | – | – | – | –
O=C(c1ccc(OCCN2C(=O)CCC2=O)cc1)c1c(-c2ccc(O)cc2)oc(=O)c2cc(O)ccc12 | 0.75 | > 100 | > 100 | 5730 | 0.17 | 32.2 | 2.07 | 0.19 | 0.93 | 41.5 | > 100 | 0.89 | – | – | – | –
Cc1cc(C(=O)C2=C(c3ccc(O)cc3)COc3cc(O)ccc32)ccc1OCCN1Cc2cccnc2C1 | 1.13 | > 100 | > 100 | – | – | – | – | – | – | – | – | – | – | – | – | –
Cc1cc(C(=O)CNc2c(-c3ccc(O)cc3)c(=O)oc3cc(O)ccc23)ccc1OCCN1CCC=C(C(=O)O)C1 | 0.19 | > 100 | > 100 | 102 | 0.04 | 57.6 | 2.67 | -0.06 | 0.25 | 91.8 | > 100 | 0.34 | 91 | 96 | 2.14 | –
CNCCOc1ccc(N2Nc3cc(O)ccc3-c3c2c2ccc(O)cc2oc3=O)cc1 | 0.33 | > 100 | > 100 | – | – | – | – | – | – | – | – | – | – | – | – | –
Nc1ccc(-c2c(C(=O)c3ccc(OCCNS(=O)(=O)O)cc3)c3ccc(O)cc3oc2=O)cc1 | 0.39 | > 100 | > 100 | 79.5 | 0.08 | 44.7 | 2.36 | 0.05 | 0.45 | 75.7 | > 100 | 0.54 | 91 | 94 | 1.78 | –
O=C(c1ccc(OCCN2C=Cc3ccccc3C2)cc1)c1c(-c2ccc(O)cc2)oc(=O)c2cc(O)ccc12 | 0.71 | > 100 | > 100 | 42.7 | 0.16 | 24 | 2.1 | 0.32 | 0.8 | 41.7 | > 100 | 0.76 | – | – | – | –
Nc1ccc(-c2c(C(=O)c3ccc(OCCN4CC(C(=O)O)=CCC4=O)cc3)c3ccc(O)cc3[nH]c2=O)cc1 | 37 | > 100 | > 100 | 72.5 | 0.04 | 40.7 | 2.38 | 0.09 | 0.44 | 77 | > 100 | 0.41 | 88 | 91 | 1.86 | –
O=C(c1ccc(OCCN2CCCCC2)cc1)c1c(-c2ccc(O)cc2)sc2cc(O)ccc12 [RALOXIFENE] | – | – | – | – | – | 41.2 | – | 0.08 | 0.89 | 92.3 | – | 0.94 | 93 | 96 | – | 2.37
Cc1cc(N2Nc3c(c(=O)oc4cc(O)ccc34)-c3ccc(O)cc32)ccc1OCCN1CCC=C(C(=O)O)C1 | 144 | – | – | 45.4 | 32.3 | 25.5 | -0.21 | 0.29 | – | – | – | – | – | – | – | –
Cc1cc(C(=O)C2=C(c3ccc(O)cc3)COc3cc(O)ccc32)ccc1OCCN1C=Cc2cccnc2C1 | 1.05 | > 100 | > 100 | – | – | – | – | – | – | – | – | – | – | – | – | –
Cc1cc(N2Nc3cc(O)ccc3-c3c2c2ccc(O)cc2oc3=O)ccc1OCCN1CCC=C(C(=O)O)C1 | – | – | > 100 | 98.2 | – | – | – | – | – | – | – | – | – | – | – | –
